According to PubChem BioAssay AID1259407 (Chemical Carcinogenesis Research Information System (CCRIS), 2018):
Activity calls are given as the source filed them. No rule for the calls is given here.

Tested on: CCRIS mutagenicity, Ames/micronucleus/aberration tests
Assay: CCRIS mutagenicity studies
[1] = Test System: AMES SALMONELLA TYPHIMURIUM, Strain/Indicator: TA98, Metabolic Activation: NONE, Method: STANDARD PLATE
[2] = Test System: AMES SALMONELLA TYPHIMURIUM, Strain/Indicator: TA98, Metabolic Activation: RAT, LIVER, S-9, AROCLOR 1254, Method: STANDARD PLATE
[3] = Test System: AMES SALMONELLA TYPHIMURIUM, Strain/Indicator: TA100, Metabolic Activation: NONE, Method: STANDARD PLATE
[4] = Test System: AMES SALMONELLA TYPHIMURIUM, Strain/Indicator: TA100, Metabolic Activation: RAT, LIVER, S-9, AROCLOR 1254, Method: STANDARD PLATE
[5] = Test System: AMES SALMONELLA TYPHIMURIUM, Strain/Indicator: TA1535, Metabolic Activation: NONE, Method: STANDARD PLATE
[6] = Test System: AMES SALMONELLA TYPHIMURIUM, Strain/Indicator: TA1537, Metabolic Activation: NONE, Method: STANDARD PLATE
[7] = Test System: AMES SALMONELLA TYPHIMURIUM, Strain/Indicator: TA1537, Metabolic Activation: RAT, LIVER, S-9, AROCLOR 1254, Method: STANDARD PLATE
[8] = Test System: AMES SALMONELLA TYPHIMURIUM, Strain/Indicator: TA1538, Metabolic Activation: NONE, Method: STANDARD PLATE
[9] = Test System: AMES SALMONELLA TYPHIMURIUM, Strain/Indicator: TA1538, Metabolic Activation: RAT, LIVER, S-9, AROCLOR 1254, Method: STANDARD PLATE
[10] = Test System: MOUSE LYMPHOMA, Strain/Indicator: L5178Y (TK+/TK-), Metabolic Activation: NONE, Method: SUSPENSION/PLATE
[11] = Test System: MOUSE LYMPHOMA, Strain/Indicator: L5178Y (TK+/TK-), Metabolic Activation: RAT, LIVER, S-9, AROCLOR 1254, Method: SUSPENSION/PLATE

SMILES: O=C(CCCN1CCN(c2ccccn2)CC1)c1ccc(F)cc1
- mutagenic call (Test System: AMES SALMONELLA TYPHIMURIUM, Strain/Indicator: TA98, Metabolic Activation: MOUSE, LIVER, S-9, PHENOBARBITAL, Method: STANDARD PLATE): inactive; negative
- mutagenic call [1]: inactive; negative
- mutagenic call (Test System: AMES SALMONELLA TYPHIMURIUM, Strain/Indicator: TA98, Metabolic Activation: RAT, LIVER, S-9, AROCLOR 1254, Method: PREINCUBATION): inactive; negative
- mutagenic call [2]: inactive; negative
- mutagenic call [3]: inactive; negative
- mutagenic call [4]: inactive; negative
- mutagenic call (Test System: AMES SALMONELLA TYPHIMURIUM, Strain/Indicator: TA1530, Metabolic Activation: NONE, Method: STANDARD PLATE): inactive; negative
- mutagenic call (Test System: AMES SALMONELLA TYPHIMURIUM, Strain/Indicator: TA1530, Metabolic Activation: RAT, LIVER, S-9, AROCLOR 1254, Method: STANDARD PLATE): inactive; negative
- mutagenic call [5]: inactive; negative
- mutagenic call (Test System: AMES SALMONELLA TYPHIMURIUM, Strain/Indicator: TA1535, Metabolic Activation: RAT, LIVER, S-9, AROCLOR 1254, Method: STANDARD PLATE): inactive; negative
- mutagenic call [6]: inactive; negative
- mutagenic call [7]: inactive; negative
- mutagenic call [8]: inactive; negative
- mutagenic call [9]: inactive; negative

SMILES: CC(C)CCCC(C)C1CCC2C3CC=C4CC(OCCO)CCC4(C)C3CCC12C (centres undefined)
- mutagenic call [1]: inactive; negative
- mutagenic call (Test System: AMES SALMONELLA TYPHIMURIUM, Strain/Indicator: TA98, Metabolic Activation: RAT, LIVER, MICROSOMES, Method: STANDARD PLATE): inactive; negative
- mutagenic call [3]: inactive; negative
- mutagenic call (Test System: AMES SALMONELLA TYPHIMURIUM, Strain/Indicator: TA100, Metabolic Activation: RAT, LIVER, MICROSOMES, Method: STANDARD PLATE): inactive; negative

SMILES: CNC(=O)Oc1ccccc1OC(C)C
- mutagenic call (Test System: AMES SALMONELLA TYPHIMURIUM, Strain/Indicator: TA98, Metabolic Activation: HAMSTER, LIVER, S-9, AROCLOR 1254, Method: STANDARD PLATE): inactive; negative
- mutagenic call [1]: inactive; negative
- mutagenic call [2]: inactive; negative
- mutagenic call (Test System: AMES SALMONELLA TYPHIMURIUM, Strain/Indicator: TA100, Metabolic Activation: HAMSTER, LIVER, S-9, AROCLOR 1254, Method: STANDARD PLATE): inactive; negative
- mutagenic call [3]: inactive; negative
- mutagenic call [4]: inactive; negative
- mutagenic call [5]: active; positive
- mutagenic call [6]: inactive; negative
- mutagenic call [7]: inactive; negative
- mutagenic call (Test System: AMES SALMONELLA TYPHIMURIUM, Strain/Indicator: TA1538, Metabolic Activation: HAMSTER, LIVER, S-9, AROCLOR 1254, Method: STANDARD PLATE): inactive; negative
- mutagenic call [8]: inactive; negative
- mutagenic call [9]: inactive; negative
- mutagenic call (Test System: CHINESE HAMSTER V-79, Strain/Indicator: V-79(HPRT)/6-THIOGUANINE, Metabolic Activation: NONE): inactive; negative
- mutagenic call [10]: active; positive. reevaluation of results: positive
- mutagenic call [11]: active; positive. reevaluation of results: positive

SMILES: CN(C)c1ccc(CCO)cc1
- mutagenic call (Test System: AMES SALMONELLA TYPHIMURIUM, Strain/Indicator: TA98, Metabolic Activation: HAMSTER, LIVER, S-9, AROCLOR 1254 (5, 10, 20%), Method: STANDARD PLATE): active; positive
- mutagenic call (Test System: AMES SALMONELLA TYPHIMURIUM, Strain/Indicator: TA98, Metabolic Activation: RAT, LIVER, S-9, AROCLOR 1254 (20%), Method: STANDARD PLATE): active; positive
- mutagenic call (Test System: AMES SALMONELLA TYPHIMURIUM, Strain/Indicator: TA98, Metabolic Activation: RAT, LIVER, S-9, AROCLOR 1254, HAMSTER, LIVER, S-9, AROCLOR 1254, Method: STANDARD PLATE): active; positive
- mutagenic call (Test System: AMES SALMONELLA TYPHIMURIUM, Strain/Indicator: TA1538, Metabolic Activation: HAMSTER, LIVER, S-9, AROCLOR 1254 (2.5-20%), Method: STANDARD PLATE): active; positive
- mutagenic call (Test System: AMES SALMONELLA TYPHIMURIUM, Strain/Indicator: TA1538, Metabolic Activation: RAT, LIVER, S-9, AROCLOR 1254 (5, 10, 20%), Method: STANDARD PLATE): active; positive
- mutagenic call (Test System: AMES SALMONELLA TYPHIMURIUM, Strain/Indicator: TA1538, Metabolic Activation: RAT, LIVER, S-9, AROCLOR 1254, HAMSTER, LIVER, S-9, AROCLOR 1254, Method: STANDARD PLATE): active; positive
- mutagenic call [11]: active; positive. reevaluation of results: inconclusive
- mutagenic call (Test System: Mouse lymphoma, Strain/Indicator: L5178Y (tk+/tk-), Metabolic Activation: None, Method: Suspension/plate): inactive; negative

SMILES: CNc1ccc2ncc(C)nc2c1C
- mutagenic call (Test System: AMES SALMONELLA TYPHIMURIUM, Strain/Indicator: TA98, Metabolic Activation: NONE, Method: PREINCUBATION): inactive; negative
- mutagenic call (Test System: AMES SALMONELLA TYPHIMURIUM, Strain/Indicator: TA98, Metabolic Activation: RAT, LIVER, S-9, PCB, Method: PREINCUBATION): active; positive
- mutagenic call (Test System: AMES SALMONELLA TYPHIMURIUM, Strain/Indicator: TA100, Metabolic Activation: NONE, Method: PREINCUBATION): inactive; negative
- mutagenic call (Test System: AMES SALMONELLA TYPHIMURIUM, Strain/Indicator: TA100, Metabolic Activation: RAT, LIVER, S-9, PCB, Method: PREINCUBATION): active; positive

SMILES: O=c1[nH]cc(N(CCCl)CCCl)c(=O)[nH]1
- mutagenic call [5]: active; positive
- mutagenic call (Test System: E. COLI, Strain/Indicator: WP2 UVRA, Metabolic Activation: HAMSTER, LIVER, S-9, AROCLOR 1254, Method: STANDARD PLATE): active; positive
- mutagenic call (Test System: E. COLI, Strain/Indicator: WP2 UVRA, Metabolic Activation: HAMSTER, LIVER, S-9, Method: STANDARD PLATE): active; positive
- mutagenic call (Test System: E. COLI, Strain/Indicator: WP2 UVRA, Metabolic Activation: MOUSE, LIVER, S-9, Method: STANDARD PLATE): active; positive
- mutagenic call (Test System: E. COLI, Strain/Indicator: WP2 UVRA, Metabolic Activation: NONE, Method: STANDARD PLATE): active; positive
- mutagenic call (Test System: E. COLI, Strain/Indicator: WP2 UVRA, Metabolic Activation: RAT, LIVER, S-9, AROCLOR 1254, Method: STANDARD PLATE): active; positive
- mutagenic call (Test System: E. COLI, Strain/Indicator: WP2 UVRA, Metabolic Activation: RAT, LIVER, S-9, Method: STANDARD PLATE): active; positive
- mutagenic call [10]: active; positive
- mutagenic call [11]: active; positive

SMILES: Cc1cncc(C)c1.Cc1cncc(C)c1.[Cl][Pt][Cl]
- mutagenic call (Test System: AMES SALMONELLA TYPHIMURIUM, Strain/Indicator: TA92, Metabolic Activation: NONE, Method: STANDARD PLATE): inactive; negative
- mutagenic call [1]: active; positive
- mutagenic call [3]: inactive; negative
- mutagenic call (Test System: AMES SALMONELLA TYPHIMURIUM, Strain/Indicator: TA2410, Metabolic Activation: NONE, Method: STANDARD PLATE): active; positive

SMILES: CCCCCC/C=C\CCCCCCOC(C)=O
- mutagenic call [1]: inactive; negative
- mutagenic call (Test System: AMES SALMONELLA TYPHIMURIUM, Strain/Indicator: TA98, Metabolic Activation: RAT, LIVER, S-9, Method: STANDARD PLATE): inactive; negative
- mutagenic call [3]: inactive; negative
- mutagenic call (Test System: AMES SALMONELLA TYPHIMURIUM, Strain/Indicator: TA100, Metabolic Activation: RAT, LIVER, S-9, Method: STANDARD PLATE): inactive; negative
- mutagenic call (Test System: AMES SALMONELLA TYPHIMURIUM, Strain/Indicator: TA102, Metabolic Activation: NONE, Method: STANDARD PLATE): inactive; negative
- mutagenic call (Test System: AMES SALMONELLA TYPHIMURIUM, Strain/Indicator: TA102, Metabolic Activation: RAT, LIVER, S-9, Method: STANDARD PLATE): inactive; negative
